{"source": "PubChem BioAssay AID2060485", "about": "(Molecular Pharmacology Branch, DTP, NCI, 2025)", "system": "A375 multi-cell spheroids with HUVEC/MSC, viability", "experiment": "Anticancer human tumor A375 cell line growth inhibition [GQUAD];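 on all read-outs here: spheroids exposed to compounds for seven days before readout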", "conditions": "for IC50: curve of first compound; for viability, T/C: stronger effect = lower value", "how_it_was_run": "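Multi-cell-type spheroids of tumor cells with HUVEC and mesenchymal stem cells, treated with drug combinations. Concentrations descend in half-log steps from near clinical Cmax, or from 10 microM where Cmax is unknown; viability read-out.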", "key": {"[1]": {"conditions": "second compound 0.0316 µM, first compound 0.0316 µM"}, "[2]": {"conditions": "second compound 0.0316 µM, first compound 0.316 µM"}, "[3]": {"conditions": "second compound 0.1 µM, first compound 0.0316 µM"}, "[4]": {"conditions": "second compound 0.1 µM, first compound 0.316 µM"}, "[5]": {"conditions": "second compound 0.316 µM, first compound 0.0316 µM"}, "[6]": {"conditions": "second compound 0.316 µM, first compound 0.316 µM"}, "[7]": {"conditions": "second compound 1 µM, first compound 0.0316 µM"}, "[8]": {"conditions": "second compound 1 µM, first compound 0.316 µM"}, "[9]": {"conditions": "second compound 3.16 µM, first compound 0.0316 µM"}, "[10]": {"conditions": "second compound 3.16 µM, first compound 0.316 µM"}, "[11]": {"conditions": "second compound 10 µM, first compound 0.0316 µM"}, "[12]": {"conditions": "second compound 10 µM, first compound 0.316 µM"}}}
{"smiles": "Cc1[nH]c2ccccc2c1CCNCc1ccc(/C=C/C(=O)NO)cc1", "note": "+ Cc1cnc(CNC(=O)c2c(=O)c3ccc(N4CCCN(C)CC4)nc3n3c2sc2ccccc23)cn1", "values": [{"measurement": "IC50", "setting": "second compound 0.0316 µM", "value": 112, "unit": "nM"}, {"measurement": "IC50", "setting": "second compound 0.1 µM", "value": 48.8, "unit": "nM"}, {"measurement": "IC50", "setting": "second compound 0.316 µM", "value": 35.9, "unit": "nM"}, {"measurement": "IC50", "setting": "second compound 1 µM", "value": "< 0.999", "unit": "nM"}, {"measurement": "IC50", "setting": "second compound 3.16 µM", "value": "< 0.999", "unit": "nM"}, {"measurement": "IC50", "setting": "second compound 10 µM", "value": "< 0.999", "unit": "nM"}, {"measurement": "viability, T/C", "setting": "second compound 0.0316 µM, first compound 0.000999 µM", "value": 98.2, "unit": "%"}, {"measurement": "viability, T/C", "setting": "second compound 0.0316 µM, first compound 0.00316 µM", "value": 103, "unit": "%"}, {"measurement": "viability, T/C", "setting": "second compound 0.0316 µM, first compound 0.00999 µM", "value": 123, "unit": "%"}, {"measurement": "viability, T/C", "setting": "[1]", "value": 113, "unit": "%"}, {"measurement": "viability, T/C", "setting": "second compound 0.0316 µM, first compound 0.0999 µM", "value": 54.4, "unit": "%"}, {"measurement": "viability, T/C", "setting": "[2]", "value": 10.3, "unit": "%"}, {"measurement": "viability, T/C", "setting": "second compound 0.1 µM, first compound 0.000999 µM", "value": 74.6, "unit": "%"}, {"measurement": "viability, T/C", "setting": "second compound 0.1 µM, first compound 0.00316 µM", "value": 69.7, "unit": "%"}, {"measurement": "viability, T/C", "setting": "second compound 0.1 µM, first compound 0.00999 µM", "value": 74, "unit": "%"}, {"measurement": "viability, T/C", "setting": "[3]", "value": 60.5, "unit": "%"}, {"measurement": "viability, T/C", "setting": "second compound 0.1 µM, first compound 0.0999 µM", "value": 31.7, "unit": "%"}, {"measurement": "viability, T/C", "setting": "[4]", "value": 8.85, "unit": "%"}, {"measurement": "viability, T/C", "setting": "second compound 0.316 µM, first compound 0.000999 µM", "value": 54.1, "unit": "%"}, {"measurement": "viability, T/C", "setting": "second compound 0.316 µM, first compound 0.00316 µM", "value": 55.5, "unit": "%"}, {"measurement": "viability, T/C", "setting": "second compound 0.316 µM, first compound 0.00999 µM", "value": 49, "unit": "%"}, {"measurement": "viability, T/C", "setting": "[5]", "value": 53.9, "unit": "%"}, {"measurement": "viability, T/C", "setting": "second compound 0.316 µM, first compound 0.0999 µM", "value": 25.2, "unit": "%"}, {"measurement": "viability, T/C", "setting": "[6]", "value": 8.14, "unit": "%"}, {"measurement": "viability, T/C", "setting": "second compound 1 µM, first compound 0.000999 µM", "value": 37.2, "unit": "%"}, {"measurement": "viability, T/C", "setting": "second compound 1 µM, first compound 0.00316 µM", "value": 42.2, "unit": "%"}, {"measurement": "viability, T/C", "setting": "second compound 1 µM, first compound 0.00999 µM", "value": 39.4, "unit": "%"}, {"measurement": "viability, T/C", "setting": "[7]", "value": 35.4, "unit": "%"}, {"measurement": "viability, T/C", "setting": "second compound 1 µM, first compound 0.0999 µM", "value": 18.7, "unit": "%"}, {"measurement": "viability, T/C", "setting": "[8]", "value": 1.63, "unit": "%"}, {"measurement": "viability, T/C", "setting": "second compound 3.16 µM, first compound 0.000999 µM", "value": 35.6, "unit": "%"}, {"measurement": "viability, T/C", "setting": "second compound 3.16 µM, first compound 0.00316 µM", "value": 30.9, "unit": "%"}, {"measurement": "viability, T/C", "setting": "second compound 3.16 µM, first compound 0.00999 µM", "value": 35.5, "unit": "%"}, {"measurement": "viability, T/C", "setting": "[9]", "value": 34.1, "unit": "%"}, {"measurement": "viability, T/C", "setting": "second compound 3.16 µM, first compound 0.0999 µM", "value": 13.6, "unit": "%"}, {"measurement": "viability, T/C", "setting": "[10]", "value": 0.08, "unit": "%"}, {"measurement": "viability, T/C", "setting": "second compound 10 µM, first compound 0.000999 µM", "value": 30.9, "unit": "%"}, {"measurement": "viability, T/C", "setting": "second compound 10 µM, first compound 0.00316 µM", "value": 25.6, "unit": "%"}, {"measurement": "viability, T/C", "setting": "second compound 10 µM, first compound 0.00999 µM", "value": 29.1, "unit": "%"}, {"measurement": "viability, T/C", "setting": "[11]", "value": 25, "unit": "%"}, {"measurement": "viability, T/C", "setting": "second compound 10 µM, first compound 0.0999 µM", "value": 8.95, "unit": "%"}, {"measurement": "viability, T/C", "setting": "[12]", "value": 0.14, "unit": "%"}]}
{"smiles": "Nc1ccn(C2OC(CO)C(O)C2(F)F)c(=O)n1", "note": "(centres undefined) + Cc1cnc(CNC(=O)c2c(=O)c3ccc(N4CCCN(C)CC4)nc3n3c2sc2ccccc23)cn1", "values": [{"measurement": "IC50", "setting": "second compound 0.0316 µM", "value": "< 31.6", "unit": "nM"}, {"measurement": "IC50", "setting": "second compound 0.1 µM", "value": "< 31.6", "unit": "nM"}, {"measurement": "IC50", "setting": "second compound 0.316 µM", "value": "< 31.6", "unit": "nM"}, {"measurement": "IC50", "setting": "second compound 1 µM", "value": "< 31.6", "unit": "nM"}, {"measurement": "IC50", "setting": "second compound 3.16 µM", "value": "< 31.6", "unit": "nM"}, {"measurement": "IC50", "setting": "second compound 10 µM", "value": "< 31.6", "unit": "nM"}, {"measurement": "viability, T/C", "setting": "[1]", "value": 22.9, "unit": "%"}, {"measurement": "viability, T/C", "setting": "second compound 0.0316 µM, first compound 0.1 µM", "value": 10.1, "unit": "%"}, {"measurement": "viability, T/C", "setting": "[2]", "value": 10.4, "unit": "%"}, {"measurement": "viability, T/C", "setting": "second compound 0.0316 µM, first compound 1 µM", "value": 10.4, "unit": "%"}, {"measurement": "viability, T/C", "setting": "second compound 0.0316 µM, first compound 3.16 µM", "value": 8.9, "unit": "%"}, {"measurement": "viability, T/C", "setting": "second compound 0.0316 µM, first compound 10 µM", "value": 7.49, "unit": "%"}, {"measurement": "viability, T/C", "setting": "[3]", "value": 23.4, "unit": "%"}, {"measurement": "viability, T/C", "setting": "second compound 0.1 µM, first compound 0.1 µM", "value": 10.8, "unit": "%"}, {"measurement": "viability, T/C", "setting": "[4]", "value": 9.94, "unit": "%"}, {"measurement": "viability, T/C", "setting": "second compound 0.1 µM, first compound 1 µM", "value": 10.3, "unit": "%"}, {"measurement": "viability, T/C", "setting": "second compound 0.1 µM, first compound 3.16 µM", "value": 9.17, "unit": "%"}, {"measurement": "viability, T/C", "setting": "second compound 0.1 µM, first compound 10 µM", "value": 7.13, "unit": "%"}, {"measurement": "viability, T/C", "setting": "[5]", "value": 22.3, "unit": "%"}, {"measurement": "viability, T/C", "setting": "second compound 0.316 µM, first compound 0.1 µM", "value": 12.7, "unit": "%"}, {"measurement": "viability, T/C", "setting": "[6]", "value": 9.56, "unit": "%"}, {"measurement": "viability, T/C", "setting": "second compound 0.316 µM, first compound 1 µM", "value": 11.4, "unit": "%"}, {"measurement": "viability, T/C", "setting": "second compound 0.316 µM, first compound 3.16 µM", "value": 10, "unit": "%"}, {"measurement": "viability, T/C", "setting": "second compound 0.316 µM, first compound 10 µM", "value": 7.6, "unit": "%"}, {"measurement": "viability, T/C", "setting": "[7]", "value": 28.3, "unit": "%"}, {"measurement": "viability, T/C", "setting": "second compound 1 µM, first compound 0.1 µM", "value": 14.9, "unit": "%"}, {"measurement": "viability, T/C", "setting": "[8]", "value": 13.3, "unit": "%"}, {"measurement": "viability, T/C", "setting": "second compound 1 µM, first compound 1 µM", "value": 13.8, "unit": "%"}, {"measurement": "viability, T/C", "setting": "second compound 1 µM, first compound 3.16 µM", "value": 12.5, "unit": "%"}, {"measurement": "viability, T/C", "setting": "second compound 1 µM, first compound 10 µM", "value": 7.97, "unit": "%"}, {"measurement": "viability, T/C", "setting": "[9]", "value": 29, "unit": "%"}, {"measurement": "viability, T/C", "setting": "second compound 3.16 µM, first compound 0.1 µM", "value": 20.9, "unit": "%"}, {"measurement": "viability, T/C", "setting": "[10]", "value": 18.9, "unit": "%"}, {"measurement": "viability, T/C", "setting": "second compound 3.16 µM, first compound 1 µM", "value": 14.1, "unit": "%"}, {"measurement": "viability, T/C", "setting": "second compound 3.16 µM, first compound 3.16 µM", "value": 11.8, "unit": "%"}, {"measurement": "viability, T/C", "setting": "second compound 3.16 µM, first compound 10 µM", "value": 6.29, "unit": "%"}, {"measurement": "viability, T/C", "setting": "[11]", "value": 24.9, "unit": "%"}, {"measurement": "viability, T/C", "setting": "second compound 10 µM, first compound 0.1 µM", "value": 22.1, "unit": "%"}, {"measurement": "viability, T/C", "setting": "[12]", "value": 19.1, "unit": "%"}, {"measurement": "viability, T/C", "setting": "second compound 10 µM, first compound 1 µM", "value": 14.6, "unit": "%"}, {"measurement": "viability, T/C", "setting": "second compound 10 µM, first compound 3.16 µM", "value": 10.9, "unit": "%"}, {"measurement": "viability, T/C", "setting": "second compound 10 µM, first compound 10 µM", "value": 2.89, "unit": "%"}]}
